Assays:
[1] = target: T1, GDGT–MAS (MJ0619; Tes) (Methanocaldococcus jannaschii, UniProt Q58036); test: X-ray crystal structure, […] Å; type: binding; details: lipid-exchanged from M. acetivorans extract; with 5'-dAH and methionine; lipid identity assigned from electron density; second lipid site
T1 sequence (Q58036 1-506): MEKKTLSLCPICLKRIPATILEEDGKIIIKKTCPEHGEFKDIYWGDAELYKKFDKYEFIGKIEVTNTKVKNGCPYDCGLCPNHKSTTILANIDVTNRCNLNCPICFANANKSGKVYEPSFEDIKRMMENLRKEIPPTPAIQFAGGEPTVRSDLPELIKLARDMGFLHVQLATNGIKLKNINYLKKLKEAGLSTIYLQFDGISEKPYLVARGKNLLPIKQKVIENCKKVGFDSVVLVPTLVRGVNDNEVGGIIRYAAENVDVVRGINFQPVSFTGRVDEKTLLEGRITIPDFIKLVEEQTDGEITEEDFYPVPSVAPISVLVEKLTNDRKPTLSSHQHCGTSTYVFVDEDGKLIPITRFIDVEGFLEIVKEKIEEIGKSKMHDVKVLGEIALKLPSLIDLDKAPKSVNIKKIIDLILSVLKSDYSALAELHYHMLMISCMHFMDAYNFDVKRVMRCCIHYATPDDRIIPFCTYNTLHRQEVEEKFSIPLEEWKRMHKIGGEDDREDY

[2] = target: T1, GDGT–MAS (MJ0619; Tes); test: X-ray crystal structures, […] Å and […] Å; type: binding; details: with 5'-dAH and bound lipids; bidentate to the unique iron of the radical SAM [Fe4S4] cluster

SMILES	X-ray crystal structure, 2.05 Å [1]	X-ray crystal structures, 1.85 Å and 2.05 Å [2]
CC(C)CCC[C@@H](C)CCC[C@@H](C)CCC[C@@H](C)CCOC[C@@H](COP(=O)(O)O)OCC[C@H](C)CCC[C@H](C)CCC[C@H](C)CCCC(C)C [L1P, 2,3-di-O-phytanyl-sn-glycero-1-phosphate]	Unmodelled electron density in the active site was assigned as two archaeal lipid molecules	–
CSCC[C@H](N)C(=O)O [Met, methionine]	–	methionine coordinates to the unique iron in a bidentate manner
